Experimental data taken from EP0478292A1, “Heterocyclic compounds” (THE WELLCOME FOUNDATION LIMITED, priority 1990, dated 1992).
Like-named read-outs stand apart in the source and are kept apart here.

Target: T1, Purine nucleoside phosphorylase (PNPase) (Homo sapiens, UniProt P00491)
T1 construct: Purine nucleoside phosphorylase (PNPase) was purified from human erythrocytes; from tissue; host or cells: human erythrocytes
T1 sequence (P00491 1-289): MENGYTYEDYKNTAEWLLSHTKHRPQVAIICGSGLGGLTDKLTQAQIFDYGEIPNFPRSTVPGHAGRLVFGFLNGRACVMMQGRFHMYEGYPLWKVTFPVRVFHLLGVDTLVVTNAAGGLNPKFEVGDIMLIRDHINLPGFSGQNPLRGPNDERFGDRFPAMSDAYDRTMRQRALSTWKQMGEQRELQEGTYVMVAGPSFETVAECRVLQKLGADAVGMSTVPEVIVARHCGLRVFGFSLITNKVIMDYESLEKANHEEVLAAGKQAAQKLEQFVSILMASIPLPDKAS
Test: Inhibition of purine nucleoside phosphorylase, spectrophotometric assay of inosine phosphorolysis coupled with xanthine oxidase
Type: biochemical
Protocol: Enzymology-Purine nucleoside phosphorylase (PNPase) was purified from human erythrocytes by the procedure of Agarwal et al (1). PNPase and xanthine oxidase were desalted before use (2). […] PNPase was assayed spectrophotometrically as previously described (2). In addition to PNPase, the reaction mixtures contained 0.1 mM inosine, 1 mM potassium phosphate, 100 mM Tris=HCl buffer (pH 7.5), 2µM ZnCl₂, and 0.2 U/ml of xanthine oxidase. […] The percent inhibition (%I) of PNP by a single concentration of inhibitor was measured (3).

[1] = apparent inhibition constant calculated from percent inhibition at a single inhibitor concentration assuming competitive inhibition, PNPase from human erythrocytes, 0.1 mM inosine, 1 mM potassium phosphate, pH 7.5, 2µM ZnCl₂, read-out: Ki

| SMILES | Ki [1] | Ki |
| --- | --- | --- |
| Nc1nc(O)c2ncn(CCCCP(=O)(O)CP(=O)(O)O)c2n1 [Compound 2, (((4-(2-amino-1,6-dihydro-6-oxo-9H-purin-9-yl)butyl)phosphinico)methyl)phosphonic acid] | 0.077 µM | – |
| Nc1nc2c(ncn2CCCOCP(=O)(O)CP(=O)(O)O)c(=O)[nH]1 [Compound 6, ((((3-(2-amino-1,6-dihydro-6-oxo-9H-purine-9-yl)propoxy)methyl)phosphinico)methyl)phosphonic acid] | 0.0045 µM | – |
| CCOP(=O)(O)CP(=O)(O)CCCCCn1cnc2c(O)nc(N)nc21 [Compound 5, ethyl hydrogen (((5-(2-amino-1,6-dihydro-6-oxo-9H-purin-9-yl)pentyl)phosphinico)methyl)phosphonate] | – | 0.87 µM |
| Nc1nc(O)c2ncn(CCCCCCCP(=O)(O)CP(=O)(O)O)c2n1 [Compound 4, (((7-(2-amino-1,6-dihydro-6-oxo-9H-purin-9-yl)heptyl)phosphinico)methyl)phosphonic acid] | 0.0083 µM | – |
